Measured values published in ChEMBL document CHEMBL3885881, “DrugMatrix”.

Species: Rattus norvegicus
Experiment: DrugMatrix - Regimen: Daily Repeat
Assay type: toxicity, organism-based, Sprague-Dawley
Parameters: regimen Daily Repeat, gender Male, age 6-8 weeks
Details: in vivo, po, route oral GAVAGE, […]; for ABSOLUTE BASOPHIL / ABSOLUTE EOSINOPHIL / ABSOLUTE LYMPHOCYTE / ABSOLUTE MONOCYTE / ABSOLUTE SEGMENTED NEUTROPHIL / BASOPHIL / EOSINOPHIL / ERYTHROCYTE COUNT / HEMATOCRIT / HEMOGLOBIN / LEUKOCYTE COUNT / LYMPHOCYTE / MEAN CORPUSCULAR HEMOGLOBIN / MEAN CORPUSCULAR HEMOGLOBIN CONCENTRATION / MEAN CORPUSCULAR VOLUME / MONOCYTE / NEUTROPHIL / NUCLEATED RED BLOOD CELLS / PLATELET COUNT: tissue Blood; for ALANINE AMINOTRANSFERASE / ALBUMIN / ALKALINE PHOSPHATASE / ASPARTATE AMINOTRANSFERASE / BLOOD UREA NITROGEN / CARBON DIOXIDE / CHLORIDE / CHOLESTEROL / CREATINE PHOSPHOKINASE / CREATININE / GLUCOSE / LACTATE DEHYDROGENASE / LIPASE / POTASSIUM / SODIUM / TOTAL BILIRUBIN / TOTAL PROTEIN / URIC ACID: tissue Plasma
[1] = 0 mg/kg, 72 h, dose level Control, time 3 day
[2] = 0 mg/kg, 120 h, dose level Control, time 5 day
[3] = 3 mg/kg, 72 h, dose level Low, time 3 day
[4] = 3 mg/kg, 120 h, dose level Low, time 5 day

## CCc1ccc(CCOc2ccc(CC3SC(=O)NC3=O)cc2)nc1 (configuration not stated) [PIOGLITAZONE]
[1]
  ABSOLUTE BASOPHIL: 0 CELLS/uL
  ABSOLUTE EOSINOPHIL: 22.83 CELLS/uL
  ABSOLUTE LYMPHOCYTE: 11213.33 CELLS/uL
  ABSOLUTE MONOCYTE: 169.83 CELLS/uL
  ABSOLUTE SEGMENTED NEUTROPHIL: 960.67 CELLS/uL
  BASOPHIL: 0%
  EOSINOPHIL: 0.17%
  ERYTHROCYTE COUNT: 5.34 x10E6/uL
  HEMATOCRIT: 33.62%
  HEMOGLOBIN: 13.17 G/DL
  LEUKOCYTE COUNT: 12.37 x10E3/uL
  LYMPHOCYTE: 90.33%
  MEAN CORPUSCULAR HEMOGLOBIN: 24.65 pg
  MEAN CORPUSCULAR HEMOGLOBIN CONCENTRATION: 39.18 G/DL
  MEAN CORPUSCULAR VOLUME: 62.95 fL
  MONOCYTE: 1.5%
  NEUTROPHIL: 8%
  NUCLEATED RED BLOOD CELLS: 0 /100WBC
  ALANINE AMINOTRANSFERASE: 56.67 u/L
  ALBUMIN: 4.55 G/DL
  ALKALINE PHOSPHATASE: 305.17 u/L
  ASPARTATE AMINOTRANSFERASE: 96.5 u/L
  BLOOD UREA NITROGEN: 13.5 mg/dL
  CARBON DIOXIDE: 31 mmol/L
  CHLORIDE: 101.67 MEQ/L
  CHOLESTEROL: 75.83 mg/dL
  CREATINE PHOSPHOKINASE: 345.67 u/L
  CREATININE: 0.28 mg/dL
  GLUCOSE: 142.5 mg/dL
  LACTATE DEHYDROGENASE: 136.67 u/L
  LIPASE: 10.17 u/L
  POTASSIUM: 5.41 MEQ/L
  SODIUM: 146.7 MEQ/L
  TOTAL BILIRUBIN: 0.13 mg/dL
  TOTAL PROTEIN: 6.65 G/DL
  URIC ACID: 0.77 mg/dL
[2]
  ABSOLUTE BASOPHIL: 0 CELLS/uL
  ABSOLUTE EOSINOPHIL: 26.33 CELLS/uL
  ABSOLUTE LYMPHOCYTE: 10004.33 CELLS/uL
  ABSOLUTE MONOCYTE: 141.33 CELLS/uL
  ABSOLUTE SEGMENTED NEUTROPHIL: 1161.33 CELLS/uL
  BASOPHIL: 0%
  EOSINOPHIL: 0.33%
  ERYTHROCYTE COUNT: 5.5 x10E6/uL
  HEMATOCRIT: 34.8%
  HEMOGLOBIN: 13.17 G/DL
  LEUKOCYTE COUNT: 11.33 x10E3/uL
  LYMPHOCYTE: 87.83%
  MEAN CORPUSCULAR HEMOGLOBIN: 23.95 pg
  MEAN CORPUSCULAR HEMOGLOBIN CONCENTRATION: 37.83 G/DL
  MEAN CORPUSCULAR VOLUME: 63.28 fL
  MONOCYTE: 1.17%
  NEUTROPHIL: 10.67%
  NUCLEATED RED BLOOD CELLS: 0 /100WBC
  PLATELET COUNT: 1035.33 x10E3/uL
  ALANINE AMINOTRANSFERASE: 36 u/L
  ALBUMIN: 4.63 G/DL
  ALKALINE PHOSPHATASE: 266.33 u/L
  ASPARTATE AMINOTRANSFERASE: 71.67 u/L
  BLOOD UREA NITROGEN: 11.33 mg/dL
  CARBON DIOXIDE: 30.17 mmol/L
  CHLORIDE: 100.83 MEQ/L
  CHOLESTEROL: 70.33 mg/dL
  CREATINE PHOSPHOKINASE: 226.17 u/L
  CREATININE: 0.27 mg/dL
  GLUCOSE: 147.83 mg/dL
  LACTATE DEHYDROGENASE: 111.67 u/L
  LIPASE: 8 u/L
  POTASSIUM: 5.14 MEQ/L
  SODIUM: 145.48 MEQ/L
  TOTAL BILIRUBIN: 0.1 mg/dL
  TOTAL PROTEIN: 6.53 G/DL
  URIC ACID: 0.52 mg/dL
[3]
  ABSOLUTE BASOPHIL: 0 CELLS/uL
  ABSOLUTE EOSINOPHIL: 196.67 CELLS/uL
  ABSOLUTE LYMPHOCYTE: 13366 CELLS/uL
  ABSOLUTE MONOCYTE: 155.33 CELLS/uL
  ABSOLUTE SEGMENTED NEUTROPHIL: 1182 CELLS/uL
  BASOPHIL: 0%
  EOSINOPHIL: 1.33%
  ERYTHROCYTE COUNT: 5.51 x10E6/uL
  HEMATOCRIT: 35.97%
  HEMOGLOBIN: 13.93 G/DL
  LEUKOCYTE COUNT: 14.9 x10E3/uL
  LYMPHOCYTE: 89.67%
  MEAN CORPUSCULAR HEMOGLOBIN: 25.3 pg
  MEAN CORPUSCULAR HEMOGLOBIN CONCENTRATION: 38.77 G/DL
  MEAN CORPUSCULAR VOLUME: 65.23 fL
  MONOCYTE: 1%
  NEUTROPHIL: 8%
  NUCLEATED RED BLOOD CELLS: 0 /100WBC
  PLATELET COUNT: 1174 x10E3/uL
  ALANINE AMINOTRANSFERASE: 60.33 u/L
  ALBUMIN: 4.03 G/DL
  ALKALINE PHOSPHATASE: 427.33 u/L
  ASPARTATE AMINOTRANSFERASE: 94.33 u/L
  BLOOD UREA NITROGEN: 8.67 mg/dL
  CARBON DIOXIDE: 32.67 mmol/L
  CHLORIDE: 103.67 MEQ/L
  CHOLESTEROL: 64.67 mg/dL
  CREATINE PHOSPHOKINASE: 625.67 u/L
  CREATININE: 0.22 mg/dL
  GLUCOSE: 155.67 mg/dL
  LACTATE DEHYDROGENASE: 125.67 u/L
  LIPASE: 12.33 u/L
  POTASSIUM: 6.21 MEQ/L
  SODIUM: 145.77 MEQ/L
  TOTAL BILIRUBIN: 0.13 mg/dL
  TOTAL PROTEIN: 5.33 G/DL
  URIC ACID: 1.63 mg/dL
[4]
  ABSOLUTE BASOPHIL: 0 CELLS/uL
  ABSOLUTE EOSINOPHIL: 37 CELLS/uL
  ABSOLUTE LYMPHOCYTE: 11883.67 CELLS/uL
  ABSOLUTE MONOCYTE: 95.33 CELLS/uL
  ABSOLUTE SEGMENTED NEUTROPHIL: 1150.67 CELLS/uL
  BASOPHIL: 0%
  EOSINOPHIL: 0.33%
  ERYTHROCYTE COUNT: 5.61 x10E6/uL
  HEMATOCRIT: 36.33%
  HEMOGLOBIN: 14.47 G/DL
  LEUKOCYTE COUNT: 13.17 x10E3/uL
  LYMPHOCYTE: 90.33%
  MEAN CORPUSCULAR HEMOGLOBIN: 25.8 pg
  MEAN CORPUSCULAR HEMOGLOBIN CONCENTRATION: 39.83 G/DL
  MEAN CORPUSCULAR VOLUME: 64.8 fL
  MONOCYTE: 0.67%
  NEUTROPHIL: 8.67%
  NUCLEATED RED BLOOD CELLS: 0 /100WBC
  PLATELET COUNT: 1242.33 x10E3/uL
  ALANINE AMINOTRANSFERASE: 58.33 u/L
  ALBUMIN: 4.03 G/DL
  ALKALINE PHOSPHATASE: 346.67 u/L
  ASPARTATE AMINOTRANSFERASE: 87.67 u/L
  BLOOD UREA NITROGEN: 13 mg/dL
  CARBON DIOXIDE: 30.67 mmol/L
  CHLORIDE: 101 MEQ/L
  CHOLESTEROL: 64.67 mg/dL
  CREATINE PHOSPHOKINASE: 464 u/L
  CREATININE: 0.13 mg/dL
  GLUCOSE: 150.33 mg/dL
  LACTATE DEHYDROGENASE: 542.33 u/L
  LIPASE: 11.33 u/L
  POTASSIUM: 6.64 MEQ/L
  SODIUM: 142.57 MEQ/L
  TOTAL BILIRUBIN: 0.2 mg/dL
  TOTAL PROTEIN: 5.7 G/DL
  URIC ACID: 1.57 mg/dL
